Measurements: the supplement of paper PMC13380429

Columns and labels:
Details in all cases: 72 h
Caco-2 [1] = assay: cell viability relative to DMSO; higher = less toxic
U2OS [2] = assay: as above
Vero E6 [3] = assay: as above
HepG2 [4] = assay: as above
Calu-3 [5] = assay: as above
U2OS [6] = assay: relative viability EC50 (midpoint between 100% and the lowest measured viability); higher = less toxic
Vero E6 [7] = assay: as above
HepG2 [8] = assay: as above
Calu-3 [9] = assay: as above
Caco-2 [10] = assay: drug sensitivity score (DSS) for viability; higher = more toxic; extreme values may be limits of the assay
U2OS [11] = assay: as above
Vero E6 [12] = assay: as above
HepG2 [13] = assay: as above
Calu-3 [14] = assay: as above
Caco-2 [15] = assay: relative viability EC50 (midpoint between 100% and the lowest measured viability); higher = less toxic

Row | Structure (SMILES) | cell viability (Caco-2 [1]; 1 nM) | cell viability (Caco-2 [1]; 10 nM) | cell viability (Caco-2 [1]; 100 nM) | cell viability (Caco-2 [1]; 1000 nM) | cell viability (Caco-2 [1]; 10000 nM) | cell viability (U2OS [2]; 1 nM) | cell viability (U2OS [2]; 10 nM) | cell viability (U2OS [2]; 100 nM) | cell viability (U2OS [2]; 1000 nM) | cell viability (U2OS [2]; 10000 nM) | cell viability (Vero E6 [3]; 1 nM) | cell viability (Vero E6 [3]; 10 nM) | cell viability (Vero E6 [3]; 100 nM) | cell viability (Vero E6 [3]; 1000 nM) | cell viability (Vero E6 [3]; 10000 nM) | cell viability (HepG2 [4]; 1 nM) | cell viability (HepG2 [4]; 10 nM) | cell viability (HepG2 [4]; 100 nM) | cell viability (HepG2 [4]; 1000 nM) | cell viability (HepG2 [4]; 10000 nM) | cell viability (Calu-3 [5]; 1 nM) | cell viability (Calu-3 [5]; 10 nM) | cell viability (Calu-3 [5]; 100 nM) | cell viability (Calu-3 [5]; 1000 nM) | cell viability (Calu-3 [5]; 10000 nM) | relative viability EC50 (U2OS [6]) | relative viability EC50 (Vero E6 [7]) | relative viability EC50 (HepG2 [8]) | relative viability EC50 (Calu-3 [9]) | drug sensitivity score (Caco-2 [10]) | drug sensitivity score (U2OS [11]) | drug sensitivity score (Vero E6 [12]) | drug sensitivity score (HepG2 [13]) | drug sensitivity score (Calu-3 [14]) | relative viability EC50 (Caco-2 [15])
1 | N#Cc1cnc2c(Cl)cc(NCc3cn(CCN4CCCCCC4)nn3)cc2c1Nc1ccc(F)c(Cl)c1 [cot-inhibitor-1] | 92.1% | 99.7% | 105% | 98% | 67.8% | 102% | 103% | 101% | 101% | 77% | 94.2% | 102% | 92.2% | 96.9% | 103% | 95% | 107% | 96.7% | 120% | 80.6% | 104% | 103% | 99.5% | 96.9% | 96.2% | > 10 µM | > 10 µM | > 10 µM | > 10 µM | 1.7 | 0.7 | 0 | 0.2 | 0 | 
2 | CCCCC(F)(F)[C@@]1(O)CC[C@H]2[C@@H](CC(=O)[C@@H]2CCCCCCC(=O)O)O1 [lubiprostone] | 108% | 101% | 101% | 103% | 97.8% | 104% | 102% | 104% | 99.8% | 104% |  |  |  |  |  |  |  |  |  |  | 106% | 102% | 111% | 98.6% | 98.8% | > 10 µM |  |  | > 10 µM | 0 | 0 |  |  | 0 | > 10 µM
3 | NCc1c[nH]c(=S)n1[C@H]1CCc2c(F)cc(F)cc2C1 [nepicastat] |  |  |  |  |  | 101% | 105% | 99% | 106% | 97.2% | 105% | 104% | 106% | 96.7% | 108% | 100% | 95.2% | 93.8% | 102% | 96.2% | 87.7% | 95.3% | 98.6% | 103% | 97.6% | > 10 µM | > 10 µM | > 10 µM | > 10 µM |  | 0 | 0 | 0 | 0 | 
4 | Cc1cnc(CNC(=O)c2c(=O)c3ccc(N4CCCN(C)CC4)nc3n3c2sc2ccccc23)cn1 [CX-5461] | 106% | 114% | 95.5% | 121% | 75.9% | 99.5% | 102% | 96.9% | 106% | 98.4% | 114% | 92.3% | 106% | 84.2% | 53.3% | 110% | 108% | 110% | 71.6% | 30.5% | 93.9% | 105% | 100% | 100% | 84% | > 10 µM |  | 1.16 µM | > 10 µM | 0.5 | 0 | 4.7 | 7.6 | 0.3 | > 10 µM
5 | CC(C)(C)c1ccc(/C=C/C(=O)Nc2ccc3c(c2)OCCO3)cc1 [AMG-9810] | 94.9% | 92.8% | 99.3% | 90.4% | 67.8% | 96.4% | 97.4% | 98.2% | 96.7% | 89.7% | 98.3% | 102% | 96% | 97% | 89.4% | 98.3% | 101% | 97.9% | 103% | 33.1% | 103% | 98.3% | 101% | 94.5% | 78.8% | > 10 µM | > 10 µM | 3.43 µM | > 10 µM | 2.9 | 0 | 0 | 3.4 | 1.4 | 
6 | COC(=O)C1=C(C)NC(C)=C(C(=O)OCCN2CCN(C(c3ccccc3)c3ccccc3)CC2)C1c1cccc([N+](=O)[O-])c1 (centres undefined) [manidipine] | 98.4% | 93.9% | 104% | 94.5% | 65.4% | 98.3% | 100% | 93.8% | 97.6% | 71.9% | 100% | 103% | 96.7% | 100% | 93.3% | 105% | 104% | 104% | 104% | 81.4% | 94.6% | 103% | 104% | 91.5% | 85.4% |  | > 10 µM | > 10 µM | > 10 µM | 2.5 | 1.5 | 0 | 0.3 | 0.8 | 
7 | Cc1ccc(-c2ncn(-c3ccc(Nc4nccc(-c5cccc(N6CCOCC6)c5)n4)cc3)n2)cn1 [SR-3306] | 99.3% | 98.7% | 95.9% | 92.2% | 67.5% | 102% | 104% | 97.9% | 103% | 78% | 109% | 109% | 106% | 99.1% | 92.9% | 99.8% | 90.8% | 100% | 98.9% | 40.9% | 99.9% | 98.3% | 87.8% | 94.7% | 98.6% | > 10 µM | > 10 µM | 3.04 µM | > 10 µM | 2.6 | 0.6 | 0 | 3.3 | 0 | 
8 | C[C@@]12C[C@@]3(O)O[C@@H](O1)[C@]1(COC(=O)c4ccccc4)[C@H]3C[C@@]12O[C@@H]1O[C@H](CO)[C@@H](O)[C@H](O)[C@H]1O [paeoniflorin] | 103% | 101% | 96% | 93.5% | 96% | 101% | 99.8% | 104% | 102% | 101% |  |  |  |  |  | 100% | 100% | 102% | 107% | 95.9% | 91% | 98.6% | 107% | 87% | 98.7% | > 10 µM |  | > 10 µM | > 10 µM | 0 | 0 |  | 0 | 0 | > 10 µM
9 | CCOP(=S)(OCC)Oc1cc(C)nc(C(C)C)n1 [dimpylate] | 102% | 95.4% | 103% | 93% | 93.2% | 104% | 102% | 102% | 97.9% | 99.2% |  |  |  |  |  | 92.9% | 104% | 106% | 101% | 96.8% | 106% | 100% | 99.3% | 97.7% | 96.3% | > 10 µM |  | > 10 µM | > 10 µM | 0 | 0 |  | 0 | 0 | > 10 µM
10 | COc1cccc(OCCCN)c1-c1cc(Nc2cnc(C#N)cn2)n[nH]1 | 98.9% | 101% | 86.7% | 15.5% | 21% | 101% | 86.7% | 5.2% | 2.8% | 2.5% | 92.9% | 101% | 84.9% | 61.1% | 65.3% | 97.4% | 97.4% | 35.7% | 38.3% | 25.6% | 106% | 99.9% | 69.6% | 48.1% | 57.8% | 0.022 µM |  | 0.0431 µM | 0.0872 µM | 17.6 | 31.6 | 9 | 21.7 | 13.3 | 0.194 µM
11 | CC[N+](CC)(CCCNC1=CC(=O)C(NCCC[N+](CC)(CC)Cc2ccccc2)=CC1=O)Cc1ccccc1 [benzoquinonium-dibromide] | 94.5% | 98.6% | 95.4% | 96.3% | 91.7% | 94.6% | 94.4% | 96.8% | 95.8% | 98.3% |  |  |  |  |  | 96.3% | 106% | 95.2% | 100% | 95% | 103% | 92.9% | 108% | 104% | 96.8% | > 10 µM |  | > 10 µM | > 10 µM | 0 | 0 |  | 0 | 0 | > 10 µM
12 | O=C1O[C@H](CO)[C@@H](O)[C@H](O)[C@H]1O [gluconolactone] | 109% | 106% | 102% | 95.1% | 101% | 106% | 102% | 104% | 98.9% | 106% |  |  |  |  |  | 90.9% | 103% | 92.2% | 91.2% | 94.5% | 99.6% | 90.5% | 100% | 97.2% | 105% | > 10 µM |  | > 10 µM | > 10 µM | 0 | 0 |  | 0 | 0 | > 10 µM
